The values that follow are results of earlier work, collected in patent US20110046204A1, “Human Zip1, Zinc and Citrate for Prostate Cancer Screening” (University of Maryland, Balitmore, priority 2006, published 2011).

The conditions of the series: zinc-indicator dye TSQ; read-out: affinity for zinc (Kd).

Take `COc1cc(NS(=O)(=O)c2ccc(C)cc2)c2ncccc2c1` [TSQ]: the Kd is about 10 nM.

Usually Kd stands for the constant that tells how readily two partners part at equilibrium.
